Toxic doses and inconclusive results are not listed.
System: CD2F1 mice, L1210 leukemia ip, survival T/C
Assay: NCI In Vivo Anticancer Drug Screen. Data for tumor model L1210 Leukemia (intraperitoneal) in CD2F1 (CDF1) mice
Settings: higher = longer survival
In short: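 Tumor-bearing mice (transplanted tumor) were split into treated and vehicle control groups, and the measured endpoint of each treated group was divided by that of its vehicle controls.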

[1] = endpoint: mean survival time, dose: 100.0 mg/kg/injection, schedule: Q01DX001 (ip), vehicle: saline
[2] = endpoint: mean survival time, dose: 200.0 mg/kg/injection, schedule: Q01DX001 (ip), vehicle: saline
[3] = endpoint: mean survival time, dose: 400.0 mg/kg/injection, schedule: Q01DX001 (ip), vehicle: saline
[4] = endpoint: mean survival time, dose: 100.0 mg/kg/injection, schedule: Q04DX003 (ip), vehicle: saline with Tween-80
[5] = endpoint: mean survival time, dose: 200.0 mg/kg/injection, schedule: Q04DX003 (ip), vehicle: saline with Tween-80
[6] = endpoint: mean survival time, dose: 400.0 mg/kg/injection, schedule: Q04DX003 (ip), vehicle: saline with Tween-80
[7] = endpoint: mean survival time, dose: 100.0 mg/kg/injection, schedule: Q04DX002 (ip), vehicle: saline with Tween-80
[8] = endpoint: mean survival time, dose: 200.0 mg/kg/injection, schedule: Q04DX002 (ip), vehicle: saline with Tween-80
[9] = endpoint: mean survival time, dose: 400.0 mg/kg/injection, schedule: Q04DX002 (ip), vehicle: saline with Tween-80
[10] = endpoint: mean survival time, dose: 25.0 mg/kg/injection, schedule: Q01DX009 (ip), vehicle: saline with Tween-80
[11] = endpoint: mean survival time, dose: 50.0 mg/kg/injection, schedule: Q01DX009 (ip), vehicle: saline with Tween-80
[12] = endpoint: mean survival time, dose: 50.0 mg/kg/injection, schedule: Q04DX002 (ip), vehicle: saline with Tween-80
[13] = endpoint: mean survival time, dose: 100.0 mg/kg/injection, schedule: Q01DX009 (ip), vehicle: saline with Tween-80
[14] = endpoint: mean survival time, dose: 200.0 mg/kg/injection, schedule: Q01DX009 (ip), vehicle: saline with Tween-80
[15] = endpoint: mean survival time, dose: 200.0 mg/kg/injection, schedule: Q01DX001 (ip), vehicle: saline with Tween-80
[16] = endpoint: mean survival time, dose: 400.0 mg/kg/injection, schedule: Q01DX001 (ip), vehicle: saline with Tween-80
[17] = endpoint: mean survival time, dose: 12.5 mg/kg/injection, schedule: Q01DX009 (ip), vehicle: saline with Tween-80
[18] = endpoint: mean survival time, dose: 100.0 mg/kg/injection, schedule: Q01DX001 (ip), vehicle: saline with Tween-80
[19] = endpoint: mean survival time, dose: 400.0 mg/kg/injection, schedule: Q01DX009 (ip), vehicle: saline with Tween-80
[20] = endpoint: mean survival time, dose: 75.0 mg/kg/injection, schedule: Q01DX001 (ip), vehicle: saline
[21] = endpoint: mean survival time, dose: 150.0 mg/kg/injection, schedule: Q01DX001 (ip), vehicle: saline

With `CC(=NCc1ccccc1)C(C)(O)c1ccccc1` (stereo not drawn) the T/C [1] was 107 % of control, the T/C [2] was 101 % of control and the T/C [3] was 96 % of control.
With `COc1ccc(CCNC(=O)c2ccc(OC)c(OC)c2)cc1OC` the T/C (endpoint: mean survival time, dose: 12.5 mg/kg/injection, schedule: Q01DX009 (ip), vehicle: other) was 104 % of control, the T/C (endpoint: mean survival time, dose: 25.0 mg/kg/injection, schedule: Q01DX009 (ip), vehicle: other) was 90 % of control and the T/C (endpoint: mean survival time, dose: 50.0 mg/kg/injection, schedule: Q01DX009 (ip), vehicle: other) was 103 % of control. For the same compound, the T/C (endpoint: mean survival time, dose: 100.0 mg/kg/injection, schedule: Q01DX009 (ip), vehicle: other) was 98 % of control and the T/C (endpoint: mean survival time, dose: 200.0 mg/kg/injection, schedule: Q01DX009 (ip), vehicle: other) was 97 % of control.
`COCCNC(=O)Nc1cccc2c1CCCC2` was tested, and the T/C [4] was 106 % of control, the T/C [5] was 97 % of control and the T/C [6] was 91 % of control.
For `COc1ccc([N+](=O)[O-])cc1NC(=O)Nc1cccc(Cl)c1`, the T/C [7] was 91 % of control, the T/C [8] was 97 % of control and the T/C [9] was 91 % of control.
For `O=C(OCc1ccccc1)C1CC1`, the T/C (endpoint: mean survival time, dose: 25.0 mg/kg/injection, schedule: Q01DX005 (ip), vehicle: saline with Tween-80) was 89 % of control, the T/C [10] was 96 % of control and the T/C (endpoint: mean survival time, dose: 50.0 mg/kg/injection, schedule: Q01DX005 (ip), vehicle: saline with Tween-80) was 97 % of control. For the same compound, the T/C [11] was 104 % of control, the T/C [12] was 97 % of control and the T/C (endpoint: mean survival time, dose: 100.0 mg/kg/injection, schedule: Q01DX005 (ip), vehicle: saline with Tween-80) was 93 % of control. For the same compound, the T/C [13] was 100 % of control, the T/C [7] was 102 % of control and the T/C (endpoint: mean survival time, dose: 200.0 mg/kg/injection, schedule: Q01DX005 (ip), vehicle: saline with Tween-80) was 93 % of control. For the same compound, the T/C [14] was 93 % of control and the T/C [8] was 102 % of control.
`CCCCN(CCCC)C(=O)Nc1ccccc1` was tested, and the T/C [1] was 100 % of control, the T/C [2] was 100 % of control and the T/C [3] was 98 % of control.
With `CC(=O)NC(=O)CC(O)(c1ccccc1)c1ccccc1` the T/C [15] was 91 % of control and the T/C [16] was 88 % of control.
In the case of `CC1CN1C(=O)Nc1cccc2c(NC(=O)N3CC3C)cccc12` (stereo not drawn), the T/C (endpoint: mean survival time, dose: 28.0 mg/kg/injection, schedule: Q01DX009 (ip), vehicle: Klucel (hydroxypropylcellulose) (HPC)) is reported as 151 % of control.
For `Cc1csc2ncn(C3OC(CO)C(O)C3O)c(=O)c12` (stereo not drawn), the T/C [17] was 110 % of control, the T/C [10] was 101 % of control and the T/C [11] was 94 % of control.
For `COc1ccc(/C=C2\OC(=O)C(Cc3cc(Cl)c4c(c3)OCO4)C2(O)C(C)C)cc1` (stereo not drawn), the T/C (endpoint: median survival time, dose: 6.13 mg/kg/injection, schedule: Q01DX005 (ip), vehicle: Klucel (hydroxypropylcellulose) (HPC)) was 95 % of control, the T/C (endpoint: median survival time, dose: 12.25 mg/kg/injection, schedule: Q01DX005 (ip), vehicle: Klucel (hydroxypropylcellulose) (HPC)) was 96 % of control and the T/C (endpoint: median survival time, dose: 24.5 mg/kg/injection, schedule: Q01DX005 (ip), vehicle: Klucel (hydroxypropylcellulose) (HPC)) was 103 % of control. For the same compound, the T/C (endpoint: median survival time, dose: 49.0 mg/kg/injection, schedule: Q01DX005 (ip), vehicle: Klucel (hydroxypropylcellulose) (HPC)) was 91 % of control.
With `COc1cc(/C=N\NC(=O)CNC(=O)Nc2cccc(Cl)c2)ccc1O` the T/C [17] was 91 % of control, the T/C [10] was 91 % of control and the T/C [11] was 91 % of control.
In the case of `O=[N+]([O-])c1ccc(Sc2ccc(Br)cc2)cc1`, the T/C [18] is reported as 97 % of control, the T/C [15] is reported as 106 % of control and the T/C [16] is reported as 104 % of control.
For `NC(=O)C(Cl)(Cl)Cl`, the T/C [13] was 107 % of control, the T/C (endpoint: mean survival time, dose: 100.0 mg/kg/injection, schedule: Q04DX003 (ip), vehicle: saline) was 103 % of control and the T/C [14] was 104 % of control. The T/C (endpoint: mean survival time, dose: 200.0 mg/kg/injection, schedule: Q04DX003 (ip), vehicle: saline) was 99 % of control, the T/C [19] was 103 % of control and the T/C (endpoint: mean survival time, dose: 400.0 mg/kg/injection, schedule: Q04DX003 (ip), vehicle: saline) was 99 % of control.
For `CS(=O)(=O)OCCN(CCOS(C)(=O)=O)c1ccc(N=O)c(Cl)c1`, the T/C [4] was 124 % of control.
`COc1ccc(Cl)cc1C(c1cc(Cl)ccc1OC)C(Cl)(Cl)Cl` was tested, and the T/C [13] was 97 % of control, the T/C [4] was 103 % of control and the T/C [14] was 109 % of control. For the same compound, the T/C [5] was 103 % of control, the T/C [19] was 104 % of control and the T/C [6] was 101 % of control.
`O=C(O)C/C=C/Br` was tested, and the T/C [20] was 100 % of control and the T/C [21] was 100 % of control.
`CC1=CCCC(C)C2CC(C(C)(C)O)CC12` (stereo not drawn) was tested, and the T/C [1] was 93 % of control, the T/C [2] was 91 % of control and the T/C [3] was 95 % of control.
In the case of `CC(=O)c1cccc(OC(=O)c2ccccc2)c1`, the T/C [18] is reported as 104 % of control, the T/C [13] is reported as 97 % of control and the T/C [15] is reported as 94 % of control. The T/C [14] was 94 % of control, the T/C [16] was 104 % of control and the T/C [19] was 91 % of control.
`c1ccc(OCC2(N3CCCCC3)CCCC2)cc1` was tested, and the T/C (endpoint: mean survival time, dose: 25.0 mg/kg/injection, schedule: Q04DX002 (ip), vehicle: saline with Tween-80) was 103 % of control and the T/C [12] was 108 % of control.
In the case of `O=C=N/C=C/NC(=O)Nc1cccc(Cl)c1`, the T/C [7] is reported as 104 % of control, the T/C [8] is reported as 93 % of control and the T/C [9] is reported as 101 % of control.
With `CC(=O)OC1CC2CC(O)(C(=O)CO)CC2C2CCC3=CC(=O)CC3C(C)(O)C12` (stereo not drawn) the T/C [20] was 91 % of control, the T/C [21] was 96 % of control and the T/C (endpoint: mean survival time, dose: 300.0 mg/kg/injection, schedule: Q01DX001 (ip), vehicle: saline) was 95 % of control.
With `O=NNc1cccnc1` the T/C (endpoint: median survival time, dose: 6.25 mg/kg/injection, schedule: Q01DX009 (ip), vehicle: water) was 96 % of control, the T/C (endpoint: median survival time, dose: 12.5 mg/kg/injection, schedule: Q01DX009 (ip), vehicle: water) was 99 % of control and the T/C (endpoint: median survival time, dose: 25.0 mg/kg/injection, schedule: Q01DX009 (ip), vehicle: water) was 99 % of control.
With `C=CCNC(=S)NCCO` the T/C [11] was 97 % of control, the T/C (endpoint: mean survival time, dose: 50.0 mg/kg/injection, schedule: Q04DX003 (ip), vehicle: saline with Tween-80) was 111 % of control and the T/C [13] was 100 % of control. For the same compound, the T/C [4] was 103 % of control, the T/C [14] was 94 % of control and the T/C [5] was 103 % of control.
`COc1ccc(NC(=O)Oc2cc(C)c(Cl)cc2C(C)C)c(Cl)c1` was tested, and the T/C (endpoint: mean survival time, dose: 50.0 mg/kg/injection, schedule: Q01DX009 (ip), vehicle: Klucel (hydroxypropylcellulose) (HPC)) was 100 % of control, the T/C (endpoint: mean survival time, dose: 100.0 mg/kg/injection, schedule: Q01DX009 (ip), vehicle: Klucel (hydroxypropylcellulose) (HPC)) was 96 % of control and the T/C (endpoint: mean survival time, dose: 100.0 mg/kg/injection, schedule: Q04DX003 (ip), vehicle: Klucel (hydroxypropylcellulose) (HPC)) was 98 % of control. For the same compound, the T/C (endpoint: mean survival time, dose: 200.0 mg/kg/injection, schedule: Q01DX009 (ip), vehicle: Klucel (hydroxypropylcellulose) (HPC)) was 96 % of control, the T/C (endpoint: mean survival time, dose: 200.0 mg/kg/injection, schedule: Q04DX003 (ip), vehicle: Klucel (hydroxypropylcellulose) (HPC)) was 98 % of control and the T/C (endpoint: mean survival time, dose: 400.0 mg/kg/injection, schedule: Q04DX003 (ip), vehicle: Klucel (hydroxypropylcellulose) (HPC)) was 100 % of control.
In the case of `O=C(CNC(=O)c1ccccc1)N/N=C/Cc1ccccc1`, the T/C [13] is reported as 97 % of control, the T/C [14] is reported as 104 % of control and the T/C [19] is reported as 104 % of control.
`O=c1[nH]nc([O-])c2c1[n+](Cc1ccccc1)cn2Cc1ccccc1` was tested, and the T/C (endpoint: mean survival time, dose: 9.4 mg/kg/injection, schedule: Q01DX005 (ip), vehicle: water) was 94 % of control, the T/C (endpoint: mean survival time, dose: 18.8 mg/kg/injection, schedule: Q01DX005 (ip), vehicle: water) was 98 % of control and the T/C (endpoint: mean survival time, dose: 37.5 mg/kg/injection, schedule: Q01DX005 (ip), vehicle: water) was 91 % of control. The T/C (endpoint: mean survival time, dose: 75.0 mg/kg/injection, schedule: Q01DX005 (ip), vehicle: water) was 88 % of control.
For `OCC1OC(c2[nH]nc3c(NO)ncnc23)C(O)C1O` (stereo not drawn), the T/C [20] was 107 % of control and the T/C [21] was 107 % of control.
With `CC(=O)CC(=O)C(F)(F)F.CC(=O)CC(=O)C(F)(F)F.[O]=[V]` the T/C (endpoint: mean survival time, dose: 3.8 mg/kg/injection, schedule: Q01DX009 (ip), vehicle: saline with Tween-80) was 95 % of control, the T/C (endpoint: mean survival time, dose: 7.5 mg/kg/injection, schedule: Q01DX009 (ip), vehicle: saline with Tween-80) was 93 % of control and the T/C (endpoint: mean survival time, dose: 15.0 mg/kg/injection, schedule: Q01DX009 (ip), vehicle: saline with Tween-80) was 92 % of control.
